From ChEMBL document CHEMBL1201862, “PubChem BioAssay data set” (2004)
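Where inhibition never reached the appropriate level, the endpoint shown equals the highest concentration tested. Otherwise, values were interpolated linearly from a five-concentration, 48-hour dose response in 96-well plates. GI50 = concentration required for 50% inhibition of growth.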 The source made the active and inactive calls. Rule as the data show it: active = GI50 up to about 1.1 µM and inactive = higher.

Tests used:
Experiment in all cases: growth of human tumour cells (NCI), 48 h
[1] = system: 786-0
[2] = system: CAKI-1
[3] = system: COLO 205
[4] = system: HCC 2998
[5] = system: HCT-15
[6] = system: HOP-62
[7] = system: HOP-92
[8] = system: MOLT-4
[9] = system: Malme-3M
[10] = system: NCI-H23
[11] = system: OVCAR-3
[12] = system: OVCAR-5
[13] = system: RPMI-8226
[14] = system: SF-539
[15] = system: SNB-19
[16] = system: SR
[17] = system: U-251
[18] = system: UACC-257
[19] = system: UACC-62
[20] = system: HL-60

Structure (SMILES) | GI50 [1] | GI50 [2] | GI50 [3] | GI50 [4] | GI50 [5] | GI50 [6] | GI50 [7] | GI50 [8] | GI50 [9] | GI50 [10] | GI50 [11] | GI50 [12] | GI50 [13] | GI50 [14] | GI50 [15] | GI50 [16] | GI50 [17] | GI50 [18] | GI50 [19] | GI50 [20]
O=C1N(CN2CCOCC2)CN(CN2CCOCC2)C(=O)N1Cc1ccccc1 | 26.6 µM (inactive) | 29.2 µM (inactive) | 20.1 µM (inactive) | 30.9 µM (inactive) | 27.6 µM | 35.4 µM (inactive) | 25.8 µM (inactive) | 20.1 µM (inactive) | 15.2 µM (inactive) | 17.9 µM (inactive) | 23.9 µM (inactive) | > 100 µM (inactive) | 26.5 µM (inactive) | 19.2 µM (inactive) | > 100 µM (inactive) | 18.8 µM (inactive) | 23.3 µM (inactive) | 21.7 µM (inactive) | 22.2 µM (inactive) | 
COc1cc(/C=C2\CCc3ccccc3C2=O)ccc1O | 13.7 µM (inactive) | 24.3 µM (inactive) |  | 5.64 µM (inactive) | 22.4 µM |  | 22.6 µM (inactive) | 12 µM (inactive) |  | 23 µM (inactive) | 19.6 µM (inactive) | 14.2 µM (inactive) | 17.9 µM (inactive) | 16.1 µM (inactive) | 14.6 µM (inactive) | 11.2 µM (inactive) | 16.9 µM (inactive) |  | > 10 µM (inactive) | 4.24 µM (inactive)
COc1ccc(-c2cc(N3CCN(c4ccc(Cl)cc4)CC3)c(C#N)c(=O)o2)cc1 |  | 8.71 µM (inactive) | > 100 µM (inactive) | 91.8 µM (inactive) | 40.7 µM |  | > 100 µM (inactive) |  | 7.74 µM (inactive) | 21.8 µM (inactive) |  | > 100 µM (inactive) | 12.8 µM (inactive) | 3.55 µM (inactive) | 2.93 µM (inactive) | > 100 µM (inactive) | 21.2 µM (inactive) | 17.9 µM (inactive) |  | > 100 µM (inactive)
COc1nc(N)c(NC(C)=O)c(=O)n1C |  | > 100 µM (inactive) | > 100 µM (inactive) | > 100 µM (inactive) | > 100 µM |  | 39.9 µM (inactive) | > 100 µM (inactive) | > 100 µM (inactive) | > 100 µM (inactive) |  | > 100 µM (inactive) | > 100 µM (inactive) | > 100 µM (inactive) | > 100 µM (inactive) | > 100 µM (inactive) | > 100 µM (inactive) | > 100 µM (inactive) |  | > 100 µM (inactive)
O=C1Nc2ccccc2S/C1=C\c1cccc(C(F)(F)F)c1 | > 100 µM (inactive) | 3.01 µM (inactive) | > 100 µM (inactive) |  | > 100 µM | > 100 µM (inactive) | 60.1 µM (inactive) | > 100 µM (inactive) | > 100 µM (inactive) |  | > 100 µM (inactive) | > 100 µM (inactive) | > 100 µM (inactive) | > 100 µM (inactive) | > 100 µM (inactive) | > 100 µM (inactive) | > 100 µM (inactive) | > 100 µM (inactive) | > 100 µM (inactive) | 5.01 µM (inactive)
CC1=CC(=O)N(n2c(C)n[nH]c2=O)C1=O | > 100 µM (inactive) | > 100 µM (inactive) | > 100 µM (inactive) | > 100 µM (inactive) | > 100 µM |  | > 100 µM (inactive) | > 100 µM (inactive) | > 100 µM (inactive) | > 100 µM (inactive) | > 100 µM (inactive) | > 100 µM (inactive) | > 100 µM (inactive) | > 100 µM (inactive) | > 100 µM (inactive) | > 100 µM (inactive) | > 100 µM (inactive) | > 100 µM (inactive) | > 100 µM (inactive) | 
CC(=O)Nc1ccc(-c2nnc(SCC(=O)Nc3ccccc3)o2)cc1 | > 100 µM (inactive) | > 100 µM (inactive) | > 100 µM (inactive) |  | 92 µM | > 100 µM (inactive) | > 100 µM (inactive) | > 100 µM (inactive) | > 100 µM (inactive) | 39.5 µM (inactive) | > 100 µM (inactive) | > 100 µM (inactive) | 81.7 µM (inactive) | 71.1 µM (inactive) |  | > 100 µM (inactive) | 43.7 µM (inactive) | 93.8 µM (inactive) | 54.5 µM (inactive) | 89.1 µM (inactive)
COC(=O)C1(CCCCCBr)CCCCCCCCCCC1=O (stereo not given) | 30.3 µM (inactive) | 25.5 µM (inactive) | 31.8 µM (inactive) | 41.1 µM (inactive) | 38.8 µM | > 100 µM (inactive) | 58.7 µM (inactive) | 17.9 µM (inactive) | 19.7 µM (inactive) | 45.9 µM (inactive) | 28.4 µM (inactive) | 37.3 µM (inactive) |  | 90.2 µM (inactive) | > 100 µM (inactive) | 33.5 µM (inactive) | 28.3 µM (inactive) | 23.7 µM (inactive) | 79.6 µM (inactive) | 30 µM (inactive)
CCN(CC)CCCNc1nncc2c(C)c3[nH]c4ccccc4c3cc12 | 0.667 µM (active) | 3.61 µM (inactive) | 0.653 µM (active) | 0.802 µM (active) | 7.57 µM | 0.378 µM (active) | 0.847 µM (active) | 0.0241 µM (active) | 1.04 µM (active) | 0.743 µM (active) | 1.03 µM (active) | 1.71 µM (inactive) |  | 1.12 µM (inactive) | 0.644 µM (active) | 0.247 µM (active) | 0.605 µM (active) | 1.24 µM (inactive) | 0.637 µM (active) | 0.267 µM (active)
CCOC(=O)C1=C(c2ccccc2)C12N(Cc1ccccc1)C(=O)C2(c1ccccc1)c1ccccc1 (stereo not given) |  |  | 25.9 µM (inactive) | 28.1 µM (inactive) | 30.8 µM | 67 µM (inactive) | 20 µM (inactive) | 38.8 µM (inactive) | 93.8 µM (inactive) | 39.1 µM (inactive) | 33.8 µM (inactive) | 59.8 µM (inactive) | 3.16 µM (inactive) | 45.1 µM (inactive) | 96.8 µM (inactive) | 45.3 µM (inactive) | 37.8 µM (inactive) | 34.7 µM (inactive) | 39.5 µM (inactive) | 34.9 µM (inactive)
[O-][Cl+3]([O-])([O-])O.c1ccc(C2=NN2c2ccccc2)cc1 |  | > 100 µM (inactive) | 7.76 µM (inactive) | 6.28 µM (inactive) | 7.89 µM | > 100 µM (inactive) | > 100 µM (inactive) | 3.73 µM (inactive) | 29.5 µM (inactive) | 85.7 µM (inactive) | 84.9 µM (inactive) | > 100 µM (inactive) |  | 76.2 µM (inactive) | > 100 µM (inactive) | 26.7 µM (inactive) | > 100 µM (inactive) | 59.6 µM (inactive) | 1.21 µM (inactive) | 
CC(C)(C)OC(=O)CCC1NC(=O)[C@@H]2Cc3c([nH]c4ccccc34)C(c3ccccc3)N2C1=O (stereo not given in full) | 30.6 µM (inactive) | 29.2 µM (inactive) | 20.9 µM (inactive) |  | 33 µM | 24.2 µM (inactive) | 27.9 µM (inactive) | > 100 µM (inactive) | 16.4 µM (inactive) | 29.1 µM (inactive) | 21.6 µM (inactive) | 25.1 µM (inactive) | 36.9 µM (inactive) |  | 34.3 µM (inactive) | > 100 µM (inactive) | 18.2 µM (inactive) | 21.7 µM (inactive) | 17.7 µM (inactive) | 21.4 µM (inactive)
C/C=C1/C(=Cc2[nH]c(C=c3[nH]/c(=C/C4=NC(=O)C(CC)=C4C)c(C)c3CCC(=O)O)c(CCC(=O)O)c2C)NC(=O)C1C (stereo not given) | 2.41 µM (inactive) | 16.4 µM (inactive) | 18.1 µM (inactive) | 11.4 µM (inactive) | 2.58 µM | 2.33 µM (inactive) | 0.0173 µM (active) | 1.95 µM (inactive) | 13.6 µM (inactive) | 21.5 µM (inactive) | 27.5 µM (inactive) | 8.49 µM (inactive) |  | 6.4 µM (inactive) | > 50 µM (inactive) | 4.37 µM (inactive) | 7.48 µM (inactive) | 11 µM (inactive) | 8 µM (inactive) | 7.59 µM (inactive)
COc1ccc(S(=O)(=O)c2ccccc2[N+](=O)[O-])cc1 |  |  | > 100 µM (inactive) | > 100 µM (inactive) | > 100 µM | > 100 µM (inactive) | > 100 µM (inactive) | 92.3 µM (inactive) | 81.1 µM (inactive) | 98.9 µM (inactive) | 98.6 µM (inactive) | > 100 µM (inactive) | > 100 µM (inactive) | > 100 µM (inactive) | > 100 µM (inactive) | > 100 µM (inactive) | 82.6 µM (inactive) | 71.8 µM (inactive) | > 100 µM (inactive) | 55.6 µM (inactive)
COc1ccc(N2C(=O)C3ON(C(C(N)=O)c4ccccc4)C(c4cc5ccccc5c5ccccc45)C3C2=O)cc1 (stereo not given) | 32.4 µM (inactive) | 9.1 µM (inactive) | 19.6 µM (inactive) |  | 20.4 µM | > 50 µM (inactive) | 47.1 µM (inactive) | 14.5 µM (inactive) | > 50 µM (inactive) | 45.7 µM (inactive) | 31.7 µM (inactive) | > 50 µM (inactive) |  | 16.1 µM (inactive) | > 50 µM (inactive) | 16.1 µM (inactive) | 38.5 µM (inactive) | 22.7 µM (inactive) | 10.6 µM (inactive) | 9.27 µM (inactive)
CC(=O)c1sc2n(C)c(=O)c3ccccc3[n+]2c1C | > 100 µM (inactive) | > 100 µM (inactive) | > 100 µM (inactive) | > 100 µM (inactive) | > 100 µM | > 100 µM (inactive) | 46.5 µM (inactive) | > 100 µM (inactive) |  | > 100 µM (inactive) | > 100 µM (inactive) | > 100 µM (inactive) | > 100 µM (inactive) | > 100 µM (inactive) | > 100 µM (inactive) | > 100 µM (inactive) | > 100 µM (inactive) | > 100 µM (inactive) | > 100 µM (inactive) | > 100 µM (inactive)
